Results published in patent US11566231B2, “Physiology and pathophysiology of human gut: intestine-on-chip” (EMULATE, INC., priority 2017, dated 2023).

Columns and labels:
IL-8 = assay: LPS-induced IL-8 production in Intestine-Chip; assay type: cell-based, human; conditions: LPS 100 μg/ml; Rifaximin 50 μg/ml; without stretch
human PXR = conditions: human cells; cited from earlier work

## CO[C@H]1/C=C/O[C@@]2(C)Oc3c(C)c(O)c4c(O)c(c5c(nc6cc(C)ccn65)c4c3C2=O)NC(=O)/C(C)=C\C=C\[C@H](C)[C@H](O)[C@@H](C)[C@@H](O)[C@@H](C)[C@H](OC(C)=O)[C@@H]1C [Rifaximin]
IL-8
  IL-8: decrease in IL-8
Human PXR
  expression of PXR-regulated genes, including CYP3A4 and MDR1: enhanced
